These are literature values, as cited in patent US7012060B1, “TNF receptor and steroid hormone in a combined therapy” (priority 1995, dated 2006).

Series [1] has as its system septic shock induced by Tumor Necrosis Factor alpha (TNF-α) in combination with D-Galactosamine. The settings on record: mice; cited from earlier work.
The subject of series [2] is systemic lupus erythematosus. The note with it: mouse model; cited from earlier work.
Series [3] concerns herpes virus type 2. The note with it: cited from earlier work.
In series [4] the test system is West Nile virus. The settings on record: cited from earlier work.
The test system of series [5] is Semliki Forest virus. The note with it: cited from earlier work.
Series [6] concerns coxsackievirus B4. The note with it: cited from earlier work.

For `C[C@]12CC[C@H](O)CC1=CC[C@@H]1[C@@H]2CC[C@]2(C)C(=O)CC[C@@H]12` [DHEA, Dehydroepiandrosterone], the “protection from septic shock” value in series [1] is reported as “protecting mice from septic shock”. For the same molecule, the “development of systemic lupus erythematosus” value in series [2] is “prevent the development”. The “systemic resistance against lethal viral infections” value in series [3], in series [4], in series [5] and in series [6] was “regulates the systemic resistance” each time.
